The text below walks through data of patent US20040023862A1, “Uses of bombesin receptor 3” (SmithKline Beedham p. l. c., priority 2000, published 2004).

Like-named read-outs stand apart in the source and are kept apart here. Non-standard residues stand in square brackets, D forms with d. Residues, ends and D or L forms follow the SMILES beside them. No end group written: not given here. *: point of attachment. pGlu = O=C1CC[C@@H](C(=O)O)N1; Nle = CCCC[C@H](N)C(=O)O; βAla = NCCC(=O)O; NHPr = CCCN*

Experiment [1] deals with T1, endogenous human BRS-3 in NCI-N417 cells (Homo sapiens, UniProt P32247).
T1 construct: Agonist Pharmacology at the Endogenous Human BRS-3 in NCI-N417 Cells; endogenous in cells; host or cells: NCI-N417 cells
T1 sequence (P32247 1-399): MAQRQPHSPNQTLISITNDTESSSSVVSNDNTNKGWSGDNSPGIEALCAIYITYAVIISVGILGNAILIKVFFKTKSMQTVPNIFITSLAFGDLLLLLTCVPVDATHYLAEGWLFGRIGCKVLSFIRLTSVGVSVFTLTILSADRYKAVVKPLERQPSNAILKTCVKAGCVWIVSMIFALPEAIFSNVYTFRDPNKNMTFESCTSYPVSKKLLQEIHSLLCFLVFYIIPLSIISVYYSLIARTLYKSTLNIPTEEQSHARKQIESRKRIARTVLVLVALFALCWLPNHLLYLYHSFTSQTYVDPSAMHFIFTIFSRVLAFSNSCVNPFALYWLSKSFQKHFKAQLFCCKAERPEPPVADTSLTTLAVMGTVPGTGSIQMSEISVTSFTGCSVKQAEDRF
Description: Agonist pharmacology, FLIPR intracellular calcium (Fluo-3AM) in NCI-N417 cells. The format is cell-based. The procedure: Agonist Pharmacology at the Endogenous Human BRS-3 in NCI-N417 Cells
NCI-N417 cells were seeded into Costar 96 well black walled plates (30,000 cells per well), cultured overnight in RPMI 1640 medium containing 10% foetal calf serum and 1% L-glutamine, and then loaded with the cytoplasmic calcium indicator Fluo-3AM (4 μM) in the presence of 2.5 mM probenecid at 37° C. for 60 min. The cells were then washed 4× with, and finally resuspended in, Tyrode's medium containing 2.5 mM probenecid. Fluorescence was then monitored using a FLIPR (λEX=488 nm, λEM=540 nm) before and after the addition of various ligands (10 pM-10 μM), as described previously (Smart et al (1999). Br. J. Pharmacol. 128:1-4).

Experiment [2] concerns the target T2, BRS3 (Homo sapiens, UniProt P32247).
T2 sequence (P32247 1-399): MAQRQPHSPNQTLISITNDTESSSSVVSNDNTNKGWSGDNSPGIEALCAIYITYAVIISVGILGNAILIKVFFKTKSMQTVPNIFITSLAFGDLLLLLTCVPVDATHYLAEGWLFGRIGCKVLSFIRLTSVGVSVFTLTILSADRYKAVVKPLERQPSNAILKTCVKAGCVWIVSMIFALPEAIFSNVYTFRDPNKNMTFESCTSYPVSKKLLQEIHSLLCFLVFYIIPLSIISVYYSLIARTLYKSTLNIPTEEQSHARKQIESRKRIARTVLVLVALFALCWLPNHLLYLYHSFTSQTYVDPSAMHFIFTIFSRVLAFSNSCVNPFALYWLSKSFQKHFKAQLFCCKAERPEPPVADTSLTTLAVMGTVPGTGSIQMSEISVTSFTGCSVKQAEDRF
Conditions: background statement, in words; cited from earlier work.

Experiment [3] addresses T3, human bombesin receptor 3 (BRS3), endogenous in NCI-N417 cells (human) (UniProt P32247).
T3 sequence: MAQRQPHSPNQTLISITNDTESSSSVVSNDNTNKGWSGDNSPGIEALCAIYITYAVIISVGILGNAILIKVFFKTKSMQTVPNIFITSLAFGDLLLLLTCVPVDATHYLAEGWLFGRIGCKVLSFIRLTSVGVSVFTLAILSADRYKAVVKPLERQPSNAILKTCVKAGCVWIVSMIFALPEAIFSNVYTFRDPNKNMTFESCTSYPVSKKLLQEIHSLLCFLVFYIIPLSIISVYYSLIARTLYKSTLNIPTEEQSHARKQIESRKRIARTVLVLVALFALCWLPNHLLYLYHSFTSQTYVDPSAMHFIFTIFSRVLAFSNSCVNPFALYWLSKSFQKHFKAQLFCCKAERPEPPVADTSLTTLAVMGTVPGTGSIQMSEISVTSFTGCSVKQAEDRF
The experiment is described as follows: cell-based or functional assay.

Where [4] appears, read: calcium mobilisation, FLIPR, NCI-N417 cells, efficacy in words.

With `CCCC[C@H](NC(=O)[C@H](Cc1ccccc1)NC(=O)[C@H](Cc1cnc[nH]1)NC(=O)CCNC(=O)[C@@H](NC(=O)[C@H](C)NC(=O)[C@H](Cc1c[nH]c2ccccc12)NC(=O)[C@H](CCC(N)=O)NC(=O)[C@H](N)Cc1ccc(O)cc1)C(C)C)C(N)=O` [[D-Tyr^6, βAla^11, Phe^13, Nle^14]Bombesin(6-14)] (H-[dY]QWAV[βAla]HF[Nle]-NH2), the EC50 in experiment [1] (calcium mobilisation, FLIPR, NCI-N417 cells, ligands 10 pM-10 μM, read-out: pEG50 (the source's name) (converted)) is 9.55 nM.
As for neuromedin B [NMB], the Efficacy entry in experiment [1] (setting [4]) is reported as “full”. Moreover, the “affinity at BRS3” value in experiment [2] was “very low (high μM) affinity”.
On to `CCCNC(=O)[C@H](CC(C)C)NC(=O)[C@H](Cc1c[nH]cn1)NC(=O)CNC(=O)[C@@H](NC(=O)[C@H](C)NC(=O)[C@H](Cc1c[nH]c2ccccc12)NC(=O)[C@H](CCC(N)=O)NC(=O)[C@H](N)Cc1ccccc1)C(C)C` [[D-Phe^6]BN(6-13) propylaniide], for which the EC50 in experiment [1] was 1380 nM. Also, the Efficacy result in experiment [1] (setting [4]) is “full”.
On the same counts, the results for `CCCC[C@H](NC(=O)[C@H](Cc1ccccc1)NC(=O)[C@H](Cc1c[nH]cn1)NC(=O)CNC(=O)[C@@H](NC(=O)[C@H](C)NC(=O)[C@H](Cc1c[nH]c2ccccc12)NC(=O)[C@H](CCC(N)=O)NC(=O)[C@H](N)Cc1ccccc1)C(C)C)C(N)=O` [[D-Phe^1, Nle^9]litorin] are 1100 nM and “full”.
Consider `CCCC[C@H](NC(=O)[C@H](Cc1ccccc1)NC(=O)[C@H](Cc1c[nH]cn1)NC(=O)CCNC(=O)[C@@H](NC(=O)[C@H](C)NC(=O)[C@H](Cc1c[nH]c2ccccc12)NC(=O)[C@H](CCC(N)=O)NC(=O)[C@H](N)Cc1ccc(O)cc1)C(C)C)C(N)=O` [[D-Tyr^6, βAla^11, Phe^13, Nle^14]Bombesin(6-14)] (H-[dY]QWAV[βAla]HF[Nle]-NH2), for which, in experiment [1] (setting [4]), the Efficacy entry was “full”.
Consider `CSCC[C@H](NC(=O)[C@H](Cc1ccccc1)NC(=O)[C@H](Cc1c[nH]cn1)NC(=O)CNC(=O)[C@@H](NC(=O)[C@H](C)NC(=O)[C@H](Cc1c[nH]c2ccccc12)NC(=O)[C@H](CCC(N)=O)NC(=O)[C@@H]1CCCN1C(=O)CNC(=O)CNC(=O)CNC(=O)[C@@H]1CCC(=O)N1)C(C)C)C(N)=O` [PG-L] ([pGlu]GGGPQWAVGHFM-NH2; C-terminus assumed), for which the Efficacy entry in experiment [1] (setting [4]) is “full”.
Turning to `CCCNC(=O)[C@H](Cc1ccccc1)NC(=O)[C@H](Cc1c[nH]cn1)NC(=O)CNC(=O)[C@@H](NC(=O)[C@H](C)NC(=O)[C@H](Cc1c[nH]c2ccccc12)NC(=O)[C@H](CCC(N)=O)NC(=O)[C@H](N)Cc1ccccc1)C(C)C` [[D-Phe^6, Phe^13]BN(6-13) propylamide] (H-[dF]QWAVGHF-NHPr; N-terminus assumed), the EC50 in experiment [1] was 148 nM. For the same molecule, in experiment [1] (setting [4]), the Efficacy entry is given as “full”.
As to Bombesin (peptide), in experiment [3], the Efficacy; intracellular calcium (FLIPR) in NCI-N417 cells was 23% and the pEG50 [sic, pEC50]; intracellular calcium (Fluo-3AM fluorescence, FLIPR) in NCI-N417 cells is < 5 -log10(M).
Take “[D-Tyr^6, βAla^11, Phe^13, Nle^14]Bombesin(6-14) (peptide)”: the pEG50 [sic, pEC50]; intracellular calcium (Fluo-3AM fluorescence, FLIPR) in NCI-N417 cells in experiment [3] was 8.02 -log10(M).
Regarding `CSCC[C@H](NC(=O)[C@H](CC(C)C)NC(=O)[C@H](Cc1c[nH]cn1)NC(=O)CNC(=O)[C@@H](NC(=O)[C@H](C)NC(=O)[C@H](Cc1c[nH]c2ccccc12)NC(=O)[C@H](Cc1c[nH]cn1)NC(=O)[C@H](CC(N)=O)NC(=O)CNC(=O)[C@H](CCCNC(=N)N)NC(=O)[C@@H]1CCCN1C(=O)[C@H](Cc1ccc(O)cc1)NC(=O)[C@H](CCSC)NC(=O)[C@H](CCCCN)NC(=O)[C@@H](NC(=O)[C@H](CC(C)C)NC(=O)[C@@H](NC(=O)[C@@H](NC(=O)CNC(=O)CNC(=O)CNC(=O)[C@H](C)NC(=O)[C@@H]1CCCN1C(=O)[C@H](CC(C)C)NC(=O)[C@@H]1CCCN1C(=O)[C@@H](N)C(C)C)[C@@H](C)O)C(C)C)[C@@H](C)O)C(C)C)C(N)=O` [GRP, gastrin-releasing peptide], the “affinity at BRS3” value in experiment [2] is reported as “very low (high μM) affinity”.
Regarding [D-Phe^1, Nle^9]litorin (peptide), the pEG50 [sic, pEC50]; intracellular calcium (Fluo-3AM fluorescence, FLIPR) in NCI-N417 cells in experiment [3] is 5.96 -log10(M).
Turning to `CSCC[C@H](NC(=O)[C@H](CC(C)C)NC(=O)[C@H](Cc1cnc[nH]1)NC(=O)CNC(=O)[C@@H](NC(=O)[C@H](C)NC(=O)[C@H](Cc1c[nH]c2ccccc12)NC(=O)[C@H](CCC(N)=O)NC(=O)[C@H](CC(N)=O)NC(=O)CNC(=O)[C@H](CC(C)C)NC(=O)[C@H](CCCN=C(N)N)NC(=O)[C@H](CCC(N)=O)NC(=O)[C@@H]1CCC(=O)N1)C(C)C)C(N)=O` [Bombesin], the Efficacy in experiment [1] (calcium mobilisation, FLIPR, NCI-N417 cells, at 10 μM) stood at 23% at 10 μM.
With AcNMB(3-10), the Efficacy entry in experiment [1] (setting [4]) is given as “full”.
Turning to “[D-Phe^6, βAla^11, Phe^13, Nle^14]Bombesin(6-14) (peptide)”, the pEG50 [sic, pEC50]; intracellular calcium (Fluo-3AM fluorescence, FLIPR) in NCI-N417 cells in experiment [3] was 7.88 -log10(M).
On the same count and under the same terms, as for Ranantensin (peptide), the figure is 5.59 -log10(M); as for “[D-Phe^6, Phe^13]BN(6-13) propylamide (peptide)”, 6.83 -log10(M); as for [D-Phe^6]BN(6-13) propylamide (peptide), 5.86 -log10(M).
Consider `CSCC[C@H](NC(=O)[C@H](Cc1ccccc1)NC(=O)[C@H](Cc1c[nH]cn1)NC(=O)CNC(=O)[C@@H](NC(=O)[C@H](C)NC(=O)[C@H](Cc1c[nH]c2ccccc12)NC(=O)[C@H](CCC(N)=O)NC(=O)[C@@H]1CCCN1C(=O)[C@@H](NC(=O)[C@@H]1CCC(=O)N1)C(C)C)C(C)C)C(N)=O` [Ranantensin] ([pGlu]VPQWAVGHFM-NH2; C-terminus assumed), for which, in experiment [1] (setting [4]), the Efficacy result was “full”.
On to neuromedin C (NMC) (peptide), for which the Efficacy; intracellular calcium (FLIPR) in NCI-N417 cells in experiment [3] turned out to be 20%.
PG-L (peptide): in experiment [3], the pEG50 [sic, pEC50]; intracellular calcium (Fluo-3AM fluorescence, FLIPR) in NCI-N417 cells is 5.54 -log10(M).
Same read-out and setting: as for GNLWATGHFM (peptide, UniProt P08949 47-56, looked up, species assumed, ends and bridges not checked) [neuromedin B (NMB)], the figure is 5.65 -log10(M).
Turning to VPLPAGGGTVLTKMYPRGNHWAVGHLM (peptide, UniProt P07492 24-50, looked up, species assumed, ends and bridges not checked) [gastrin-releasing peptide (GRP)], in experiment [3], the Efficacy; intracellular calcium (FLIPR) in NCI-N417 cells turned out to be 23% and the pEG50 [sic, pEC50]; intracellular calcium (Fluo-3AM fluorescence, FLIPR) in NCI-N417 cells is < 5 -log10(M).
For the molecule Ac-LWATGHFM (peptide, UniProt P08949 49-56, looked up, species assumed, ends and bridges not checked) [AcNMB(3-10)], the pEG50 [sic, pEC50]; intracellular calcium (Fluo-3AM fluorescence, FLIPR) in NCI-N417 cells in experiment [3] was 5.73 -log10(M).
